Reference: article PMC10316653 (iScience, 2023)

Assays:
A2BAR [1] = target: T1, A2BAR (Homo sapiens, UniProt P29275); assay: cAMP accumulation assay in HEK293-A2B cells; format: cell-based; details: HEK293-A2B cells
T1 sequence (P29275 1-332): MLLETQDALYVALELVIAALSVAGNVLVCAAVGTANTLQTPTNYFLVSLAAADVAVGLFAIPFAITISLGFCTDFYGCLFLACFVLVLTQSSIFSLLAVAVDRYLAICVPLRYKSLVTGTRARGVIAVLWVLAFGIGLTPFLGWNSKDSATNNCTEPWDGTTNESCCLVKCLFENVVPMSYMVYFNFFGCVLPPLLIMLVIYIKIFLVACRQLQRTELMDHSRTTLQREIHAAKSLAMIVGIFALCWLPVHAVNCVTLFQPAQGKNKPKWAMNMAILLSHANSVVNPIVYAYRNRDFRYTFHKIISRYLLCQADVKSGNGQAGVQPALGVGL

PKCβ2 = details: reported selectivity profile, ref not given; cited from earlier work
A2BAR [2] = target: T1, A2BAR; assay: cAMP accumulation assay in naive HEK293 cells; format: cell-based; details: naive HEK293 cells, inhibitor 30 nM, PMA 1 μM, BAY 10 μM
PKCβI = details: reported selectivity profile, ref not given; cited from earlier work
PKCγ = details: reported selectivity profile, ref not given; cited from earlier work
PKCβ = details: reported selectivity profile, ref not given; cited from earlier work

effect on PKC-induced A2BAR activation (cAMP) (A2BAR [1]; inhibitor 30 nM) | effect on PKC-induced A2BAR activation (cAMP) (A2BAR [1]; inhibitor 1 μM) | Structure (SMILES) | IC50 (PKCβ2) | effect on PKC (PMA)-induced enhancement of BAY-induced cAMP accumulation (A2BAR [2]) | IC50 (PKCβI) | IC50 (PKCγ) | IC50 (PKCβ)
lack of inhibition | significant inhibition | CN(C)C[C@@H]1CCn2cc(c3ccccc32)C2=C(C(=O)NC2=O)c2cn(c3ccccc23)CCO1 [LY333531] | […] | did not inhibit PMA-induced enhancement | […] | […] | 
 |  | Cn1cc(C2=C(c3cn(C4CCN(Cc5ccccn5)CC4)c4ccccc34)C(=O)NC2=O)c2ccccc21 [enzastaurin] |  | did not inhibit PMA-induced enhancement |  | […] | […]
